For 43 molecules, IC50, EC50 and melting point results are on record in patent US20230391756A1, “NEW COMPOUND” (JANSSEN PHARMACEUTICA NV, priority 2020, published 2023).

Each structure is given as a SMILES string. pEC50, pIC50: −log10 of the molar value.

The subject of series [1] is NLRP3 inflammasome pathway (IL-1β). The series is described as follows: PBMC assay: IL-1β release after LPS stimulation. In kind it is cell-based. To be noted: human PBMCs, 100 ng/ml LPS for 6 hrs, MSD. The method, then: The activity of a compound according to the present invention can be assessed by in vitro methods.
(§1) Peripheral venous blood was collected from healthy individuals and human peripheral blood mononuclear cells (PBMCs) were isolated from blood by Ficoll-Histopaque (Sigma-Aldrich, A0561) density gradient centrifugation. After isolation, PBMCs were stored in liquid nitrogen for later use. Upon thawing, PBMC cell viability was determined in growth medium (RPMI media supplemented with 10% fetal bovine serum, 1% Pen-Strep and 1% L-glutamine). […] PBMCs were added at a density of 7.5×10^4 cells per well and incubated for 30 min in a 5% CO2 incubator at 37° C. LPS stimulation was performed by addition of 100 ng/ml LPS (final concentration, Invivogen, tlrl-smlps) for 6 hrs followed by collection of cellular supernatant and the analysis of IL-1β (μM) and TNF cytokines levels (μM) via MSD technology according to manufacturers' guidelines (MSD, K151A0H).

The subject of another series is TNF. The series is described as follows: PBMC assay: TNF cytokine level after LPS stimulation. In kind it is cell-based. To be noted: human PBMCs, 100 ng/ml LPS for 6 hrs, MSD, read-out: TNFα EC50. As for the experimental part: as §1

For `CCn1nc(CC(=O)N[C@H]2C[C@@](C)(O)C2)c(=O)c2ccc(Br)cc21` [F-5], the melting point was found to be 203.3 °C. Moreover, the negative logarithm of the IC50 (pIC50) in series [1] is 6.60. Also, the pEC50 in the series with TNF is under 4.70.

Take `CCn1nc(CC(=O)Nc2ccc3nncn3c2)c(=O)c2ccc(Br)cc21` [F-6]: the melting point was determined as 294.3 °C. In series [1], this molecule gave a pIC50 of 6.99. For the same molecule, the pEC50 in the series on TNF was under 4.70.

`CC(C)n1nc(CC(=O)N[C@H]2C[C@@H](C(C)(C)O)C2)c(=O)c2ccc(C(F)(F)F)cc21` [F-10] yielded a melting point of 181 °C. This molecule had a pIC50 in series [1] of 4.94. The pEC50 with TNF is under 4.70.

`CC(C)n1nc(CC(=O)Nc2ccc3cncn3c2)c(=O)c2ccc(C(F)(F)F)cc21` [F-15] had a melting point of 152.7 °C. Besides, the pIC50 in series [1] is 6.62. Also, the negative logarithm of the EC50 (pEC50) in the series on TNF is 4.96.

`CC(C)n1nc(CC(=O)Nc2ccn3cnnc3c2)c(=O)c2ccc(C(F)(F)F)cc21` [F-17] registered a melting point of 212.3 °C. The same molecule showed a negative-log IC50 (pIC50) in series [1] of 5.27. Further, the pEC50 in the series on TNF was under 4.70.

The molecule `CC(C)n1nc(CC(=O)Nc2ccc(=O)n(C)n2)c(=O)c2ccc(C(F)(F)F)cc21` [F-18] returned a melting point of 258.8 °C. This molecule also gave a pIC50 in series [1] of 6.06. The pEC50 in the series on TNF was under 4.70.

The molecule `CC(C)n1nc(CC(=O)Nc2ccc3c(c2)[nH]c(=O)n3C)c(=O)c2ccc(C(F)(F)F)cc21` [F-19] had a melting point of 241.6 °C. In series [1], this molecule gave a pIC50 of 7.04. Besides, the pEC50 in the series with TNF is 5.08.

`CC(C)n1nc(CC(=O)Nc2ccc3nncn3c2)c(=O)c2ccc(C(F)(F)F)cc21` [F-20] gave a melting point of 291.3 °C. This molecule showed a pIC50 in series [1] of 6.75. Further, the pEC50 with TNF is under 4.70.

`CC(C)n1nc(CC(=O)N[C@H]2C[C@@](C)(O)C2)c(=O)c2ccc(C(F)(F)F)cc21` [F-21] showed a melting point of 200.9 °C. In addition, the pIC50 in series [1] is 6.08. In addition, in the series on TNF, the pEC50 was under 4.70.

Molecule `CC(C)n1nc(CC(=O)Nc2ccncn2)c(=O)c2ccc(C(F)(F)F)cc21` [F-22] gave a melting point of 178.3 °C. This molecule also showed a pIC50 in series [1] of 6.33. Besides, the pEC50 in the series with TNF was 4.91.

In turn, `CC(C)n1nc(CC(=O)Nc2ccc3ncnn3c2)c(=O)c2ccc(C(F)(F)F)cc21` [F-24] returned a melting point of 206.8 °C. The pIC50 in series [1] was 6.09. For the same molecule, in the series on TNF, the pEC50 was under 4.70.

As for `CCn1nc(CC(=O)N[C@H]2C[C@@](C)(O)C2)c(=O)c2ccc(Cl)cc21` [F-25], the melting point was 191.5 °C. In series [1], this molecule gave a pIC50 of 5.67. Besides, the pEC50 with TNF was under 4.70.

`CC(C)c1ccc2c(=O)c(CC(=O)N[C@H]3C[C@@](C)(O)C3)nn(C(C)C)c2c1` [F-26] had a melting point of 201.5 °C. Further, the pIC50 in series [1] is 5.97. The pEC50 in the series on TNF was under 4.70.

As to `CCn1nc(CC(=O)Nc2ccc3nncn3c2)c(=O)c2ccc(Cl)cc21` [F-27], the melting point was 254.3 °C. Further, the pIC50 in series [1] was 6.21. For the same molecule, in the series on TNF, the pEC50 is under 4.70.

`CC(C)n1nc(CC(=O)N[C@H]2C[C@@](C)(O)C2)c(=O)c2ccc(Cl)cc21` [F-28] gave a melting point of 194.9 °C. The negative-log IC50 (pIC50) in series [1] is 6.64. Further, in the series on TNF, the pEC50 is under 4.70.

On to `CC(C)n1nc(CC(=O)Nc2ccc3nncn3c2)c(=O)c2ccc(Cl)cc21` [F-29], for which the melting point came to 292 °C. This molecule showed a negative logarithm of the IC50 (pIC50) in series [1] of 6.21. Moreover, the pEC50 in the series with TNF is under 4.70.

In the case of `CC(C)n1nc(CC(=O)Nc2ccc3nncn3n2)c(=O)c2ccc(Cl)cc21` [F-30], the melting point came to 241.6 °C. In series [1], this molecule showed a pIC50 of 6.65. Also, the pEC50 in the series with TNF was 4.79.

The molecule `CC(C)c1ccc2c(=O)c(CC(=O)Nc3ccc4nncn4c3)nn(C(C)C)c2c1` [F-31] had a melting point of 181.4 °C. This molecule gave a pIC50 in series [1] of 6.66. Moreover, the negative-log EC50 (pEC50) with TNF was 4.94.

On to `CC(C)c1ccc2c(=O)c(CC(=O)Nc3ccc4nncn4n3)nn(C(C)C)c2c1` [F-32], for which the melting point stood at 121.3 °C. The molecule also gave a pIC50 in series [1] of 6.96. For the same molecule, the pEC50 with TNF is 5.16.

On to `CC(C)n1nc(CC(=O)Nc2ccc(=O)n(C)n2)c(=O)c2ccc(Br)cc21` [F-33], for which the melting point was determined as 221.9 °C. Besides, the pIC50 in series [1] is 6.36. Further, in the series with TNF, the pEC50 was under 4.70.

In turn, `CCn1nc(CC(=O)Nc2ccc3nncn3n2)c(=O)c2ccc(Cl)cc21` [F-34] came in with a melting point of 206.5 °C. Further, the pIC50 in series [1] was 6.31. Moreover, the negative logarithm of the EC50 (pEC50) in the series with TNF is under 4.70.

With `CC(C)n1nc(CC(=O)Nc2ccc3c(C#N)ncn3c2)c(=O)c2ccc(C(F)(F)F)cc21` [F-36], the melting point is 259.8 °C. The molecule further had a pIC50 in series [1] of 6.00. The pEC50 in the series with TNF is under 4.70.

Molecule `CC(C)n1nc(CC(=O)Nc2ccc3nnc(C(F)F)n3c2)c(=O)c2ccc(C(F)(F)F)cc21` [F-39] came in with a melting point of 226.8 °C. The molecule also showed a pIC50 in series [1] of 5.68. Further, the pEC50 in the series with TNF is 4.76.

The molecule `Cc1nnc2cc(NC(=O)Cc3nn(C(C)C)c4cc(C(F)(F)F)ccc4c3=O)ccn12` [F-41] registered a melting point of 216.3 °C. This molecule showed a pIC50 in series [1] of 5.20. In addition, the pEC50 in the series with TNF is under 4.70.

Turning to `CC(C)n1nc(CC(=O)Nc2ccc3nncn3c2)c(=O)c2ccc(C3CCC3)cc21` [F-42], the melting point amounted to 179.8 °C. Moreover, the pIC50 in series [1] is 5.11. For the same molecule, the pEC50 with TNF was 4.75.

`CC(C)n1nc(CC(=O)NC2CCc3ncn(C)c3C2)c(=O)c2ccc(C(F)(F)F)cc21` (centres unmarked) [F-43]: the melting point came out at 221 °C. In series [1], the pIC50 is 5.29. Further, the pEC50 with TNF is under 4.70.

Take `CCn1nc(CC(=O)Nc2ccc3nncn3c2)c(=O)c2ccc(C3CCC3)cc21` [F-46]: the melting point turned out to be 113.1 °C. This molecule also showed a pIC50 in series [1] of 5.34. In the series with TNF, the pEC50 was under 4.70.

`CC(C)n1nc(CC(=O)Nc2nc3cccnc3o2)c(=O)c2ccc(C(F)(F)F)cc21` [F-127] gave a pIC50 in series [1] of 5.36. Moreover, the pEC50 with TNF is under 4.70.

Molecule `Cc1ccn2nc(NC(=O)Cc3nn(C(C)C)c4cc(C(F)(F)F)ccc4c3=O)nc2n1` [F-128] gave a pIC50 in series [1] of 6.18. Besides, the pEC50 in the series with TNF was under 4.70.

With `CC(C)n1nc(CC(=O)Nc2nc3ncc(Br)cn3n2)c(=O)c2ccc(C(F)(F)F)cc21` [F-129], the pIC50 in series [1] is 5.49. Further, the pEC50 in the series with TNF was under 4.70.

Regarding `CC(C)n1nc(CC(=O)Nc2cc(F)[nH]c(=O)c2)c(=O)c2ccc(C(F)(F)F)cc21` [F-130, N-(6-fluoro-2-oxo-1,2-dihydropyridin-4-yl)-2-(1-isopropyl-4-oxo-7-(trifluoromethyl)-1,4-dihydrocinnolin-3-yl)acetamide], the pIC50 in series [1] is 6.07. Besides, the pEC50 with TNF was 4.95.

For `CC(C)n1nc(CC(=O)Nc2ccc3nc(C(F)(F)F)cn3c2)c(=O)c2ccc(C(F)(F)F)cc21` [F-131], in series [1], the negative-log IC50 (pIC50) is 6.18. Besides, the pEC50 with TNF is under 4.70.

For `CC(C)n1nc(CC(=O)Nc2ccc3nncn3n2)c(=O)c2ccc(C3CC3)cc21` [F-133, N-([1,2,4]triazolo[4,3-b]pyridazine-6-yl)-2-(7-cyclopropyl-1-isopropyl-4-oxo-1,4-dihydrocinnolin-3-yl)acetamide], in series [1], the pIC50 was 6.80. Besides, the pEC50 in the series with TNF was 4.81.

`CC(C)n1nc(CC(=O)Nc2ccc3nncn3n2)c(=O)c2ccc(Br)cc21` [F-134] had a pIC50 in series [1] of 7.32. Besides, the pEC50 in the series on TNF was under 4.70.

In the case of `Cc1nnc2ccc(NC(=O)Cc3nn(C(C)C)c4cc(C(F)(F)F)ccc4c3=O)nn12` [F-135], in series [1], the pIC50 is 6.23. Besides, the pEC50 with TNF was under 4.70.

Take `O=C(Cc1nn(C2CC2)c2cc(C3CC3)ccc2c1=O)Nc1ccc2nncn2n1` [F-137]: in series [1], the pIC50 was 6.55. Further, the pEC50 in the series with TNF is 5.35.

In turn, `CC(C)n1nc(CC(=O)Nc2ccc3nccn3n2)c(=O)c2ccc(C(C)(F)F)cc21` [F-138] had a pIC50 in series [1] of 6.62. Moreover, the pEC50 with TNF is 5.46.

In series [1], `CC(C)c1ccc2c(=O)c(CC(=O)Nc3ccc4nncn4n3)nn(C3CC3)c2c1` [F-140] showed a pIC50 of 6.84. Further, the pEC50 in the series with TNF is 5.31.

Molecule `CCn1nc(CC(=O)Nc2ccc3nncn3n2)c(=O)c2ccc(C(C)C)cc21` [F-142] showed a pIC50 in series [1] of 6.92. The pEC50 in the series on TNF was about 4.89.

As for `CC(C)n1nc(CC(=O)Nc2ccc3nncn3n2)c(=O)c2ccc(C(F)(F)F)cc21` [F-143], the pIC50 in series [1] was 6.96. The pEC50 in the series with TNF is 5.12.

Turning to `O=C(Cc1nn(C2CC2)c2cc(Br)ccc2c1=O)Nc1ccc2nncn2n1` [F-144], the pIC50 in series [1] is 7.11. The pEC50 with TNF was under 4.70.

The molecule `CC(C)n1nc(CC(=O)Nc2ccc3nncn3c2)c(=O)c2ccc(C(C)(F)F)cc21` [F-149, N-([1,2,4]triazolo[4,3-a]pyridin-6-yl)-2-(7-(1,1-difluoroethyl)-1-isopropyl-4-oxo-1,4-dihydrocinnolin-3-yl)acetamide] had a pIC50 in series [1] of 6.72. Moreover, the pEC50 in the series on TNF is under 4.70.

In the case of `CC(C)n1nc(NC(=O)Nc2ccc3nncn3c2)c(=O)c2ccc(C(F)(F)F)cc21` [F-150, 1-([1,2,4]triazolo[4,3-a]pyridin-6-yl)-3-(1-isopropyl-4-oxo-7-(trifluoromethyl)-1,4-dihydrocinnolin-3-yl)urea], the pIC50 in series [1] is 5.61. In addition, the negative-log EC50 (pEC50) in the series on TNF is 4.77.
